# Assay results taken from patent publication USRE48461E1, “Modulation of androgen receptor expression” (Ionis Pharmaceuticals, Inc., priority 2012, dated 2021).
# Key:
# Format in all cases: cell-based, human
# C4-2B cells = test: C4-2B cell proliferation, ASO in combination with MDV3100 (Example 21); details: for Proliferation (% untreated control) in C4-2B without MDV-3100: 5 days
# Procedure: C4-2B cells were plated at 1,000 cells per well. […] ISIS 549148 was included as a negative control. […] After a treatment period of 5 days, the proliferative capacity of the cancer cells was measured with CellTiter 96® AQueous One Solution Cell Proliferation kit (Promega), following the manufacturer's instructions. […]
# LNCaP cells = test: LNCaP cell proliferation (complete or CSS+DHT medium); details: 5 days; for Proliferation (% untreated control) in LNCaP cells cultured in CSS + DHT medium: CSS + 1 nM DHT medium
# Procedure: After a treatment period of 5 days in complete medium or CSS+1 nM DHT medium, the proliferative capacity of the cancer cells was measured with using CellTiter 96® AQueous One Solution or CellTiter-Glo® solution Cell Proliferation kit (Promega), following the manufacturer's instructions. […] Treatment with ISIS oligonucleotides in CSS+DHT medium reduced the proliferative capacity to a greater extent than treatment with MVD-3100. The proliferative capacity of cells cultured in CSS medium without DHT is 17% of untreated control levels.
# 22RV1 cells = test: 22RV1 cell proliferation, ASO in combination with MDV3100 (Example 22); details: for Proliferation (% untreated control) in 22RV1 without MDV-3100: RNAiMAX, 3 days
# Procedure: 22RV1 cells were plated at 2,000 cells per well in 5% CSS medium for 48 hours. […] ISIS 549148 was included as a negative control. […] After a treatment period of 3 days, the proliferative capacity of the cancer cells was measured with CellTiter 96® AQueous One Solution Cell Proliferation kit (Promega), following the manufacturer's instructions. Results are presented in Tables 58-62 as percent inhibition of proliferation, relative to non-treated cells.
# C4-2 cells = test: C4-2 cell proliferation (complete or CSS+DHT medium); details: 5 days; for Proliferation (% untreated control): C4-2 cells
# Procedure: After a treatment period of 5 days in complete medium or CSS+1 nM DHT medium, the proliferative capacity of the cancer cells was measured with using CellTiter 96® AQueous One Solution or CellTiter-Glo® Cell Proliferation kit (Promega), following the manufacturer's instructions. […] The proliferative capacity of cells cultured in CSS medium without DHT is 17% of untreated control levels.
# TMPRSS2 mRNA = test: TMPRSS2 expression in C4-2 cells; details: 48 hrs; for Percent inhibition of TMPRSS2 expression: C4-2 cells, CSS + DHT medium
# Procedure: Cells were plated at 1,000 cells per well. […] After an incubation period of 48 hrs, RNA levels of AR, PSA and TMPRSS2 were measured.
# Cells were plated at 2,000 cells per well and cultured in CSS media with 1 nM DHT. […] After an incubation period of 48 hrs, RNA levels of AR, PSA and TMPRSS2 were measured.
# [1] = tested on: prostate-specific antigen (PSA) mRNA; test: PSA mRNA levels in LMR20 cells; details: with or without DHT/R1881
# Procedure: LMR20 cells were plated at 1,500 cells per well in phenol red-free medium with CSS. […] Results are presented in Tables 43-45 as mRNA levels expressed as a percentage of the baseline values. mRNA levels may be lowered or increased after treatment.
# [2] = complete medium or CSS+1 nM DHT
sequence,measurement,setting,value
"TTGATTTAATGGTTGC [ISIS 560131] (MOE and (S)-cEt gapmer chemistry, further chemistry not given here) [targets intron 1]",Proliferation (% untreated control) in C4-2B with 0.08 μM MDV-3100,C4-2B cells; ASO dose 0.04 μM + 0.08 μM MDV-3100,73 % untreated control
same,Proliferation (% untreated control) in C4-2B with 0.4 μM MDV-3100,C4-2B cells; ASO dose 0.04 μM + 0.4 μM MDV-3100,69 % untreated control
same,Proliferation (% untreated control) in C4-2B with 2.0 μM MDV-3100,C4-2B cells; ASO dose 0.04 μM + 2.0 μM MDV-3100,42 % untreated control
same,Proliferation (% untreated control) in C4-2B with […] MDV-3100,C4-2B cells; ASO dose 0.04 μM + […] MDV-3100,71 % untreated control
same,Proliferation (% untreated control) in C4-2B without MDV-3100,C4-2B cells; ASO dose 0.04 μM,59 % untreated control
same,Proliferation (% untreated control) in C4-2B with 0.08 μM MDV-3100,C4-2B cells; ASO dose 0.08 μM + 0.08 μM MDV-3100,66 % untreated control
same,Proliferation (% untreated control) in C4-2B with 0.4 μM MDV-3100,C4-2B cells; ASO dose 0.08 μM + 0.4 μM MDV-3100,69 % untreated control
same,Proliferation (% untreated control) in C4-2B with 2.0 μM MDV-3100,C4-2B cells; ASO dose 0.08 μM + 2.0 μM MDV-3100,37 % untreated control
same,Proliferation (% untreated control) in C4-2B with […] MDV-3100,C4-2B cells; ASO dose 0.08 μM + […] MDV-3100,104 % untreated control
same,Proliferation (% untreated control) in C4-2B without MDV-3100,C4-2B cells; ASO dose 0.08 μM,84 % untreated control
same,Proliferation (% untreated control) in C4-2B with 0.08 μM MDV-3100,C4-2B cells; ASO dose 0.2 μM + 0.08 μM MDV-3100,56 % untreated control
same,Proliferation (% untreated control) in C4-2B with 0.4 μM MDV-3100,C4-2B cells; ASO dose 0.2 μM + 0.4 μM MDV-3100,48 % untreated control
same,Proliferation (% untreated control) in C4-2B with 2.0 μM MDV-3100,C4-2B cells; ASO dose 0.2 μM + 2.0 μM MDV-3100,49 % untreated control
same,Proliferation (% untreated control) in C4-2B with […] MDV-3100,C4-2B cells; ASO dose 0.2 μM + […] MDV-3100,53 % untreated control
same,Proliferation (% untreated control) in C4-2B without MDV-3100,C4-2B cells; ASO dose 0.2 μM,47 % untreated control
same,Proliferation (% untreated control) in C4-2B with 0.08 μM MDV-3100,C4-2B cells; ASO dose 1.0 μM + 0.08 μM MDV-3100,42 % untreated control
same,Proliferation (% untreated control) in C4-2B with 0.4 μM MDV-3100,C4-2B cells; ASO dose 1.0 μM + 0.4 μM MDV-3100,48 % untreated control
same,Proliferation (% untreated control) in C4-2B with 2.0 μM MDV-3100,C4-2B cells; ASO dose 1.0 μM + 2.0 μM MDV-3100,43 % untreated control
same,Proliferation (% untreated control) in C4-2B with […] MDV-3100,C4-2B cells; ASO dose 1.0 μM + […] MDV-3100,39 % untreated control
same,Proliferation (% untreated control) in C4-2B without MDV-3100,C4-2B cells; ASO dose 1.0 μM,41 % untreated control
same,synergy with MDV3100,C4-2B cells; C4-2B cells,synergistic with MDV3100
same,"cell proliferation inhibited, combination","C4-2B cells; C4-2B cells, 0.08 μM ASO in combination with 0.4 μM MDV3100",31%
same,"inhibited cell proliferation, ASO alone","C4-2B cells; C4-2B cells, ASO alone at 0.08 μM",16%
same,Proliferation (% untreated control) in LNCaP cells cultured in CSS + DHT medium,LNCaP cells; 0.04 μM,97 % untreated control
same,Proliferation (% untreated control) in LNCaP cells cultured in CSS + DHT medium,LNCaP cells; 0.2 μM,81 % untreated control
same,Proliferation (% untreated control) in LNCaP cells cultured in CSS + DHT medium,LNCaP cells; 1 μM,46 % untreated control
same,Proliferation (% untreated control) in LNCaP cells cultured in CSS + DHT medium,LNCaP cells; 5.0 μM,8 % untreated control
same,proliferation of LNCaP cells,LNCaP cells; [2],reduced proliferation of the cells in a dose dependent compared to the control
same,Proliferation (% untreated control) in LNCaP cells cultured in complete medium,LNCaP cells; 0.04 μM,96 % untreated control
same,Proliferation (% untreated control) in LNCaP cells cultured in complete medium,LNCaP cells; 0.2 μM,70 % untreated control
same,Proliferation (% untreated control) in LNCaP cells cultured in complete medium,LNCaP cells; 1 μM,48 % untreated control
same,Proliferation (% untreated control) in LNCaP cells cultured in complete medium,LNCaP cells; 5.0 μM,45 % untreated control
same,synergy with MDV3100,22RV1 cells; 22RV1 cells,synergistic with MDV3100
same,"cell proliferation inhibited, combination","22RV1 cells; 22RV1 cells, 1.34 nM ASO in combination with 1.0 μM MDV3100",23%
same,"inhibited cell proliferation, ASO alone","22RV1 cells; 22RV1 cells, ASO alone at 1.34 nM",3%
same,Proliferation (% untreated control) in 22RV1 cells with 0.04 μM MDV-3100,22RV1 cells; ASO dose 0.4 nM + 0.04 μM MDV-3100,96 % untreated control
same,Proliferation (% untreated control) in 22RV1 cells with 0.2 μM MDV-3100,22RV1 cells; ASO dose 0.4 nM + 0.2 μM MDV-3100,95 % untreated control
same,Proliferation (% untreated control) in 22RV1 cells with 1.0 μM MDV-3100,22RV1 cells; ASO dose 0.4 nM + 1.0 μM MDV-3100,96 % untreated control
same,Proliferation (% untreated control) in 22RV1 cells with 5.0 μM MDV-3100,22RV1 cells; ASO dose 0.4 nM + 5.0 μM MDV-3100,91 % untreated control
same,Proliferation (% untreated control) in 22RV1 without MDV-3100,22RV1 cells; ASO dose 0.4 nM,103 % untreated control
same,Proliferation (% untreated control) in 22RV1 cells with 0.04 μM MDV-3100,22RV1 cells; ASO dose 1.34 nM + 0.04 μM MDV-3100,80 % untreated control
same,Proliferation (% untreated control) in 22RV1 cells with 0.2 μM MDV-3100,22RV1 cells; ASO dose 1.34 nM + 0.2 μM MDV-3100,90 % untreated control
same,Proliferation (% untreated control) in 22RV1 cells with 1.0 μM MDV-3100,22RV1 cells; ASO dose 1.34 nM + 1.0 μM MDV-3100,77 % untreated control
same,Proliferation (% untreated control) in 22RV1 cells with 5.0 μM MDV-3100,22RV1 cells; ASO dose 1.34 nM + 5.0 μM MDV-3100,76 % untreated control
same,Proliferation (% untreated control) in 22RV1 without MDV-3100,22RV1 cells; ASO dose 1.34 nM,97 % untreated control
same,Proliferation (% untreated control) in 22RV1 cells with 0.04 μM MDV-3100,22RV1 cells; ASO dose 4.0 nM + 0.04 μM MDV-3100,65 % untreated control
same,Proliferation (% untreated control) in 22RV1 cells with 0.2 μM MDV-3100,22RV1 cells; ASO dose 4.0 nM + 0.2 μM MDV-3100,76 % untreated control
same,Proliferation (% untreated control) in 22RV1 cells with 1.0 μM MDV-3100,22RV1 cells; ASO dose 4.0 nM + 1.0 μM MDV-3100,63 % untreated control
same,Proliferation (% untreated control) in 22RV1 cells with 5.0 μM MDV-3100,22RV1 cells; ASO dose 4.0 nM + 5.0 μM MDV-3100,63 % untreated control
same,Proliferation (% untreated control) in 22RV1 without MDV-3100,22RV1 cells; ASO dose 4.0 nM,77 % untreated control
same,Proliferation (% untreated control) in 22RV1 cells with 0.04 μM MDV-3100,22RV1 cells; ASO dose 13.4 nM + 0.04 μM MDV-3100,39 % untreated control
same,Proliferation (% untreated control) in 22RV1 cells with 0.2 μM MDV-3100,22RV1 cells; ASO dose 13.4 nM + 0.2 μM MDV-3100,51 % untreated control
same,Proliferation (% untreated control) in 22RV1 cells with 1.0 μM MDV-3100,22RV1 cells; ASO dose 13.4 nM + 1.0 μM MDV-3100,40 % untreated control
same,Proliferation (% untreated control) in 22RV1 cells with 5.0 μM MDV-3100,22RV1 cells; ASO dose 13.4 nM + 5.0 μM MDV-3100,41 % untreated control
same,Proliferation (% untreated control) in 22RV1 without MDV-3100,22RV1 cells; ASO dose 13.4 nM,57 % untreated control
same,Proliferation (% untreated control),"C4-2 cells; CSS + DHT medium, 0.04 μM",106 % untreated control
same,Proliferation (% untreated control),"C4-2 cells; CSS + DHT medium, 0.2 μM",94 % untreated control
same,Proliferation (% untreated control),"C4-2 cells; CSS + DHT medium, 1 μM",47 % untreated control
same,Proliferation (% untreated control),"C4-2 cells; CSS + DHT medium, 5.0 μM",31 % untreated control
same,Proliferation (% untreated control),"C4-2 cells; complete medium, 0.04 μM",104 % untreated control
same,Proliferation (% untreated control),"C4-2 cells; complete medium, 0.2 μM",82 % untreated control
same,Proliferation (% untreated control),"C4-2 cells; complete medium, 1 μM",70 % untreated control
same,Proliferation (% untreated control),"C4-2 cells; complete medium, 5.0 μM",51 % untreated control
same,proliferation of C4-2 cells,C4-2 cells; [2],reduced proliferation of the cells in a dose dependent manner compared to the control
same,Percent inhibition of TMPRSS2 expression,TMPRSS2 mRNA; 0.04 μM,10%
same,Percent inhibition of TMPRSS2 expression,TMPRSS2 mRNA; 0.2 μM,17%
same,Percent inhibition of TMPRSS2 expression,TMPRSS2 mRNA; 1 μM,51%
same,Percent inhibition of TMPRSS2 expression,TMPRSS2 mRNA; 5.0 μM,78%
same,Percent inhibition of TMPRSS2 expression in C4-2 cells cultured in complete medium,TMPRSS2 mRNA; 0.04 μM,29%
same,Percent inhibition of TMPRSS2 expression in C4-2 cells cultured in complete medium,TMPRSS2 mRNA; 0.2 μM,62%
same,Percent inhibition of TMPRSS2 expression in C4-2 cells cultured in complete medium,TMPRSS2 mRNA; 1 μM,76%
same,Percent inhibition of TMPRSS2 expression in C4-2 cells cultured in complete medium,TMPRSS2 mRNA; 5.0 μM,71%
same,PSA mRNA levels in LMR20 cells,[1],reduced PSA levels and TMPRSS2 more extensively than the LNA gapmer ISIS 554221 or MDV3100
